Results on three compounds are retold here after patent publication US9090600B2, “Fungicidal 4-substituted-3-{phenyl[(heterocyclylmethoxy)imino]methyl}-1,2,4-oxadizol-5(4H)-one derivatives” (BAYER INTELLECTUAL PROPERTY GMBH, priority 2011, dated 2015).

Marks after values point to notes of the source that are not given here.

One data set has as its system Phytophthora infestans. Format: in vivo. To be noted: tomato plants, spray, 500 ppm, grading 5 days after contamination.
The next data set relates to Botrytis cinerea. Put plainly: In vivo test on Botrytis cinerea (grey mould). As to conditions: gherkin plants, spray, 500 ppm, grading 4/5 days after contamination. On the procedure: The active ingredients tested are prepared by homogenization in a mixture of acetone/Tween/DMSO, then diluted with water to obtain the desired active material
Gherkin plants (Vert petit de Paris variety), sown on a 50/50 peat soil-pozzolana substrate in starter cups and grown at 18-20° C., are treated at the cotyledon Z11 stage by spraying with the active ingredient prepared as described above.
Plants, used as controls, are treated with an aqueous solution not containing the active material. After 24 hours, the plants are contaminated by spraying them with an aqueous suspension of cryopreserved Botrytis cinerea spores (50.000 spores per ml) on upper surface of the leaves. The spores are suspended in a nutrient solution composed of: • 10 g/L of PDB; • 50 g/L of D-fructose; • 2 g/L of NH4NO3; • 1 g/L of KH2PO4.
The contaminated cucumber plants are settled for 4/5 days in a climatic room at 17° C. (day/night) and at 80% relative humidity.
Grading is carried out 4/5 days after the contamination, in comparison with the control plants.
(§1) Under these conditions, good (at least 70%) or total protection is observed at a dose of 500 ppm with the following compounds: […]

The test system of data set [1] is Mycosphaerella graminicola. Put plainly: In vivo test on Mycosphaerella graminicola (wheat leaf spot). As to conditions: wheat plants, spray, 500 ppm, grading 21 to 28 days after contamination. In a few lines: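 Scipion wheat at 1-leaf stage was sprayed with compound suspension (acetone/tween/DMSO diluted in water), then inoculated 24 h later with spores (500.000/ml). Plants were held 72 h at 18° C and 100% RH, then 21 to 28 days at 90% RH. Efficacy was graded as % versus untreated controls.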

A further data set concerns Sphaerotheca fuliginea. Put plainly: In vivo test on Sphaerotheca fuliginea (cucurbits powdery mildew). To be noted: gherkin plants, spray, 500 ppm, grading 12 days after contamination. On the procedure:
(§2) The active ingredients tested are prepared by homogenization in a mixture of acetone/tween/DMSO, then diluted with water to obtain the desired active material.
Gherkin plants (Vert petit de Paris variety) in starter cups, sown on a 50/50 peat soil-pozzolana substrate and grown at 20° C./23° C., are treated at the cotyledon Z10 stage by spraying with the aqueous suspension described above. Plants, used as controls, are treated with an aqueous solution not containing the active material.
After 24 hours, the plants are contaminated by spraying them with an aqueous suspension of Sphaerotheca fuliginea spores (100.000 spores per ml). The spores are collected from a contaminated plants. The contaminated gherkin plants are incubated at about 20° C./25° C. and at 60/70% relative humidity.
Grading (% of efficacy) is carried out 12 days after the contamination, in comparison with the control plants.
as §1

Another data set deals with Puccinia recondita. Put plainly: In vivo test on Puccinia recondita (brown rust). As to conditions: wheat plants, spray, 500 ppm, grading 10 days after contamination. In a few lines:
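Wheat (Scipion) at the 1-leaf stage sprayed with compound suspension (acetone/tween/DMSO diluted in water), then inoculated 24 h later with Puccinia recondita spores at 100.000 spores per ml. Plants were held 24 h at 20 °C/100% RH, then 10 days at 20 °C/70% RH; protection graded 10 days post-inoculation versus untreated controls.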

The subject of the next data set is Uromyces appendiculatus. Put plainly: In vivo test on Uromyces appendiculatus (brown rust of bean). To be noted: Saxa variety plants, spray, 500 ppm, grading 10 days after contamination.
The conditions of data set [2]: pH 2.7.
A further data set concerns Alternaria brassicae. Put plainly: In vivo test on Alternaria brassicae (leaf spot of crucifers). As to conditions: radish plants, spray, 500 ppm, grading 6 to 7 days after contamination. As to the method:
as §2
Radish plants (Pernot variety), sown on a 50/50 peat soil-pozzolana substrate in starter cups and grown at 18-20° C., are treated at the cotyledon stage by spraying with the active ingredient prepared as described above.
Plants, used as controls, are treated with the mixture of acetone/tween/water not containing the active material.
After 24 hours, the plants are contaminated by spraying them with an aqueous suspension of Alternaria brassicae spores (40,000 spores per cm^3). The spores are collected from a 12 to 13 days-old culture.
The contaminated radish plants are incubated for 6-7 days at about 18° C., under a humid atmosphere.
Grading is carried out 6 to 7 days after the contamination, in comparison with the control plants.
Under these conditions, good protection (at least 70%) is observed at a dose of 500 ppm with the following compounds: […]

For a further data set, the system named is Pyrenophora teres. Put plainly: In vivo test on Pyrenophora teres (barley net blotch). As to conditions: barley plants, spray, 500 ppm, grading 12 days after contamination. As to the method:
The active ingredients tested are prepared by homogenization in a mixture of acetone/Tween/DMSO, then diluted with water to obtain the desired active material concentration.
Barley plants (Plaisant variety), sown on a 50/50 peat soil-pozzolana substrate in starter cups and grown at 22° C. (12 h)/20° C. (12 h), are treated at the 1-leaf stage (10 cm tall) by spraying with the active ingredient prepared as described above.
Plants, used as controls, are treated with an aqueous solution not containing the active material.
After 24 hours, the plants are contaminated by spraying them with an aqueous suspension of Pyrenophora teres spores (12.000 spores per ml). The spores are collected from a 12-day-old culture.
The contaminated barley plants are incubated for 24 hours at about 20° C. and at 100% relative humidity, and then for 12 days at 80% relative humidity.
Grading is carried out 12 days after the contamination, in comparison with the control plants.
Under these conditions, good (at least 70%) is observed at a dose of 500 ppm with the following compounds: […]

Regarding `Cn1c(/C(=N\OCc2cccc(N)n2)c2cccc(F)c2)noc1=O` [Example 83], the Eff. % in the data set on Phytophthora infestans came out at 100%; in the data set with Botrytis cinerea, 73%; in data set [1], 93%; with Sphaerotheca fuliginea, 85%; with Puccinia recondita, 89%; in the data set with Uromyces appendiculatus, 75%. In data set [2], the LogP is 1.34 [a].
For the compound `CCn1c(/C(=N\OCc2cccc(N)n2)c2ccccc2)noc1=O` [Example 209], the Eff. % in the data set with Phytophthora infestans amounted to 84%; with Alternaria brassicae, 70%; in the data set on Sphaerotheca fuliginea it was 75%; in the data set with Puccinia recondita, 88%. Besides, the lipophilicity (LogP) in data set [2] was 1.42 [a].
`COc1cccc(C(=O)Nc2nc(CO/N=C(/c3ccccc3)c3noc(=O)n3C)cs2)c1` [Example 212]: the Eff. % is given as 73% with Phytophthora infestans; 97% with Pyrenophora teres; 70% with Alternaria brassicae; 100% in data set [1]; 100% with Sphaerotheca fuliginea; 89% in the data set on Puccinia recondita. The Eff. % in the data set with Uromyces appendiculatus came out at 100%. In addition, in data set [2], the LogP was 3.58 [a].
